Experimental data from patent US20230158105A1, “Compositions and uses of Oligo-chromopeptides and methods of making” (JDS Therapeutics, LLC, priority 2021, published 2023).
Marks after values point to notes of the source that are not given here.

Legend:
[1] = system: corticosterone (CORT) induced aging rats; assay: CORT-induced aging rats: body weight, serum and liver biochemistry, liver telomere length; format: in vivo, Wistar rats; settings: oral gavage daily 21 days, O-CP30/O-CP300 = 30/300 mg HED, NR 300 mg HED, mean ± SD
Experimental: Wistar rats (n=7 in each group; 8 weeks old) were used and animals were reared at the temperature of (22±2° C.), humidity (55±5%) and a 12/12 hour light/dark cycle. Pellet food and water were provided ad libitum. The experiment was conducted under the protocol approved by Firat University. Two control groups were taken for studies. The normal control group was given phosphate-buffered saline (PBS) and the CORT control was given corticosterone (CORT). Doses of O-CPs and NR were determined based on the Human Equivalent Dose (HED) for Drug Development according to Shin et al. (2010). Conversion of human doses to animal doses was based on body surface area. A conversion factor of 6.17 was used to convert human doses to rat doses. The human equivalent dose was 30 mg and 300 mg for O-CPs and 300 mg for nicotinamide riboside. CORT (Sigma-Aldrich Co., St. Louis, Mo., USA) was suspended in saline with 0.1% Tween 80% and 0.2% DMSO. Rats in groups 2-7 were injected daily with CORT (40 mg/kg) subcutaneously for 21 consecutive days. All injections were performed in a volume of 2 ml/kg body weight, between 7:00 and 7:10 p.m. The rats were dosed with study product involving various dosages of O-CPs, NR and their combination by oral gavage, which was administered daily for 21 days. Serum levels of glucose, triglycerides, cholesterol, aspartate aminotransferase (AST), alanine aminotransferase (ALT), urea, and creatinine were analyzed with a portable automated chemistry analyzer (Samsung LABGEO PT10, Samsung Electronics Co., Suwon, Korea). Total serum CORT levels, and levels of nicotinamide adenine dinucleotide (NAD+) and NAD+ precursors such as nicotinamide (Nam), tryptophan (Trp), nicotinic acid (Na) and nicotinamide mononucleotide (NMN) and NADPH were measured […] using a commercial kit following the manufacturer's instructions by ELISA (Elx-800, Bio-Tek Instruments Inc, Vermont, USA). Telomere length in the liver was determined by qPCR. Telomerase activity was measured according to the telomerase repeat amplification protocol using a Trapeze kit (Chemicon/Millipore, Billerica, Mass.). The levels of glutathione (GSH) and reactive oxygen species (ROS) in the rat liver were determined using the corresponding commercial ELISA kits (Wako Pure Chemical Industries) according to the manufacturer's instructions. Serum levels of malondialdehyde (MDA) were analyzed by High Performance Liquid Chromatography (HPLC). Antioxidant enzymes [superoxide dismutase (SOD), catalase (CAT), glutathione peroxidase (GSHPx)] were measured using the relevant commercial kits according to the enzyme-linked immunosorbent assay (ELISA, Elx-800, Bio-Tek Instruments Inc, Vermont, USA) method. The samples size of the study was determined to be totally 49 rats (n=7; 7 groups) with the help of G*Power package program (Version 3.1.9.2) with alpha error 0.05 and 90% power with effect size 0.7 calculated from previous studies. The data was analyzed using statistical analysis software (SPSS 17.0). In this study, conformity to the assumption of normality from the prerequisites of the parametric tests was performed using the “Shapiro-Wilk” test and the homogeneity of the variances were checked with the “Levene” test. Analysis of variance (ANOVA) test was performed to determine the differences between the groups and post-hoc Tukey test was used for multiple comparisons of the groups. Statistical significance was accepted as P<0.05.

[2] = system: LPS-induced pyrexia in mice; assay: LPS-induced pyrexia in mice: serum biochemistry, liver and lung antioxidant enzymes, pyrexia; format: in vivo, BALB/c mice; settings: oral, 2 weeks before LPS, HED Se 200 μg, Zn 30 mg, O-CPs 300 mg, mean ± SD; for ALP / ALT / AST / BUN / Creatine / LDH / T Bilirubin: serum
Experimental: Six-week-old male BALB/c mice was purchased from the Firat University Experimental Animal Center. All mice were ad libitum access to standard rodent chow and water during the study. Mice were housed in cages throughout the study. The following conditions were maintained: temperature, 22±2° C.; relative humidity, 55±5%; and a 12-hours light: dark cycle. The care and treatment of the animals were in accordance with the guidelines established by the Use of Laboratory Animals and were approved by the Animal Care and Use Committee of Firat University. Two control groups were taken for studies. The normal control group was given PBS and the other control was given lipopolysaccharides (LPS) along with a vehicle, i.e., phosphate buffered saline. Forty-two mice were randomly divided into 6 treatment groups with 7 mice in each group as follows: Selenomethionine, zinc picolinate and O-CPs or vehicle were orally administered 2 weeks before LPS treatment. Control mice received 50 μL of PBS. Subsequently, rats in Groups 2 through 6 received LPS (0.04 mg/kg i.p.) 30 min after active treatment with Se, ZnPic, and O-CPs. Basal temperature readings for all treatments and LPS injections were done between 8.00 and 9.00 GMT to avoid temperature differences due to circadian rhythm. The change in rectal temperature in all rats were recorded 30 min after PBS or LPS injection and at subsequent 30 min intervals for 4 hours. After 6 hours of LPS treatment, the mice were euthanized and their blood, liver and lungs were collected for further analysis. Doses of selenomethionine, zinc picolinate and O-CPs were determined based on the Human Equivalent Dose (HED) for Drug Development according to Shin et al. (2010). Conversion of human doses to animal doses were based on body surface area. A conversion factor of 12.33 was used to convert human doses to mouse doses. The human equivalent dose was 200 μg of selenium (Se) from selenomethionine, 30 mg of zinc (Zn) from zinc picolinate and 300 mg of O-CPs. Selenomethionine dose: 200 μg/70 kg=2.86 μg/kg/day human*12.33=35.23 μg/kg/day per mouse; Zinc picolinate (20%) dose: 30 mg/70 kg=0.428 mg/kg/day human*12.33=5.28 elemental zinc mg/kg/day mouse=5.28*100/20=26.4 mg/kg/day per mouse; O-CPs dose: 300 mg/70 kg=4.29 mg/kg/day human*12.33=52.84 mg/kg/day per mouse. Serum levels of glucose, triglycerides, cholesterol, aspartate aminotransferase (AST), alanine aminotransferase (ALT), urea, and creatinine were analyzed with a portable automated chemistry analyzer (Samsung LABGEO PT10, Samsung Electronics Co., Suwon, Korea). Serum levels of MDA were analyzed by HPLC. Antioxidant enzymes (SOD, CAT, GSHPx) were measured using the relevant commercial kits according to the enzyme-linked immunosorbent assay (ELISA, Elx-800, Bio-Tek Instruments Inc, Vermont, USA) method. Serum, zinc and selenium levels in liver and lung were detected by atomic absorption spectroscopy (AAS). The samples size of the study was 42 mice (n=7; 6 groups) and analyzed with the help of G*Power package program (Version 3.1.9.2) with alpha error 0.05 and 85% power with effect size 0.65 calculated from previous studies. The data was analyzed using statistical analysis software (SPSS 17.0). In this study, conformity to the assumption of normality from the prerequisites of the parametric tests was performed using the “Shapiro-Wilk” test and the homogeneity of the variances were checked with the “Levene” test. Analysis of variance (ANOVA) test was performed to determine the differences between the groups and post-hoc Tukey test was used for multiple comparisons of the groups. Statistical significance was accepted as P<0.05.

| Compound | Liver, CAT [2] | Liver, GSHPx [2] | Liver, MDA [2] | Liver, SOD [2] | Lung, CAT [2] | Lung, GSHPx [2] | Lung, MDA [2] | Lung, SOD [2] | ALP [2] | ALT [2] | AST [2] | BUN [2] | Creatine [2] | LDH [2] | T Bilirubin [2] | other results |
| --- | --- | --- | --- | --- | --- | --- | --- | --- | --- | --- | --- | --- | --- | --- | --- | --- |
| NC(=O)c1ccc[n+]([C@@H]2O[C@H](CO)[C@@H](O)[C@H]2O)c1 [NR, nicotinamide riboside] |  |  |  |  |  |  |  |  |  |  |  |  |  |  |  | Liver GSH ([1]; liver): 33.25 ± 2.07^bc U/mg protein; Liver NADPH ([1]; liver): 44.42 ± 2.31^c nmol/g; Liver Nicotinamide (Nam) ([1]; liver): 1.60 ± 0.06^c μmol/g; Liver Nicotinamide adenine dinucleotide NAD+ ([1]; liver): 0.59 ± 0.04^c μmol/g; Liver Nicotinamide mono nucleotide (NMN) ([1]; liver): 0.30 ± 0.02^bc μmol/g; Liver Nicotinic acid (Na) ([1]; liver): 1.63 ± 0.09^abc μmol/g; CORT [1]: 102.16 ± 8.68^a ng/ml; Final Body Weight [1]: 222.86 ± 23.11^b g; GLU ([1]; serum glucose): 119.86 ± 7.10^ab mg/dl; ALT ([1]; serum): 98.00 ± 5.55 U/L; AST ([1]; serum): 114.71 ± 10.92 U/L; BUN ([1]; serum): 22.90 ± 1.87 mg/dL; CAT ([1]; serum): 114.69 ± 4.82^d U/ml; Creatine ([1]; serum): 0.37 ± 0.08; GSH-Px ([1]; serum): 26.28 ± 1.98^d U/ml; MDA ([1]; serum): 1.74 ± 0.07^b nmol/ml; SOD ([1]; serum): 61.36 ± 4.5^e U/ml |
| C[Se]CC[C@H](N)C(=O)O [Se, selenomethionine] | 41.89 ± 4.03^c U/mg | 44.79 ± 3.86^c U/mg | 5.86 ± 0.26^b nmol/mL | 95.16 ± 5.06^b U/mg | 32.29 ± 1.86^b U/mg | 33.86 ± 3.41^b U/mg | 6.67 ± 0.49^b nmol/mL | 59.32 ± 4.81^b U/mg | 285.43 ± 10.33^b IU/L | 261.57 ± 16.16^bc IU/L | 573.43 ± 59.23^b IU/L | 34.36 ± 3.26^b mg/dL | 0.59 ± 0.08^ab mg/dL | 192.11 ± 10.72^c IU/L | 0.95 ± 0.08^b mg/dL |  |
| zinc picolinate [Zn] | 43.06 ± 3.24^c U/mg | 36.86 ± 1.98^d U/mg | 5.92 ± 0.35^b nmol/mL | 75.94 ± 5.93^c U/mg | 28.53 ± 1.70^c U/mg | 28.08 ± 1.98^c U/mg | 6.83 ± 0.30^b nmol/mL | 50.36 ± 2.93^c U/mg | 292.71 ± 15.34^ab IU/L | 280.43 ± 8.85^b IU/L | 580.86 ± 32.61^b IU/L | 35.57 ± 3.20^ab mg/dL | 0.59 ± 0.06^ab mg/dL | 216.13 ± 11.39^b IU/L | 0.97 ± 0.08^b mg/dL |  |
